Experimental data: ChEMBL document CHEMBL5715945 (Cancer Biol Ther, 2010)
Activity calls are given as the source filed them. The rule behind the calls is not given here.

Experiments:
[1] = target: Mast/stem cell growth factor receptor Kit (Homo sapiens) (UniProt P10721); test: Inhibition of c-kit (unknown origin) at 1 uM relative to control; values are per cent of control
[2] = target: Mitogen-activated protein kinase 1 (Homo sapiens) (UniProt P28482); test: Inhibition of MAPK1 (unknown origin) at 0.1 uM relative to control; values are per cent of control
[3] = target: Platelet-derived growth factor receptor beta (Homo sapiens) (UniProt P09619); test: Inhibition of PDGFRb (unknown origin) at 0.1 uM relative to control; values are per cent of control
4T1 [4] = test: Induction of cell cycle arrest in mouse 4T1 adherent cells assessed as accumulation at G2/M phase at 1 uM measured after 72 hrs by PI staining based flow cytometry analysis (reference value: 5.6%); type: functional
[5] = target: Fibroblast growth factor receptor 1 (Homo sapiens) (UniProt P11362); test: Inhibition of FGFR1 (unknown origin) at 0.1 uM relative to control; values are per cent of control
[6] = target: Tyrosine-protein kinase ABL1 (Homo sapiens) (UniProt P00519); test: Inhibition of Abl (unknown origin) at 0.1 uM relative to control; values are per cent of control
[7] = target: RAF proto-oncogene serine/threonine-protein kinase (Homo sapiens) (UniProt P04049); test: Inhibition of c-RAF (unknown origin) at 1 uM relative to control; values are per cent of control
4T1 [8] = test: Induction of apoptosis in mouse 4T1 adherent cells at 0.1 to 1 uM incubated for 24 to 48 hrs by PI staining based flow cytometry analysis; type: functional, cell-based; conditions: dose 0.1-1 µM, time 24-48 hrs
[9] = target: Mitogen-activated protein kinase 1 (Homo sapiens) (UniProt P28482); test: Inhibition of MAPK1 (unknown origin) at 1 uM relative to control; values are per cent of control
[10] = target: Insulin receptor (Homo sapiens) (UniProt P06213); test: Inhibition of IR (unknown origin) at 0.1 uM relative to control; values are per cent of control
[11] = target: Protein kinase C alpha type (Homo sapiens) (UniProt P17252); test: Inhibition of PKCa (unknown origin) at 1 uM relative to control; values are per cent of control
[12] = target: Vascular endothelial growth factor receptor 2 (Homo sapiens) (UniProt P35968); test: Inhibition of KDR (unknown origin) at 0.1 uM relative to control; values are per cent of control
4T1 [13] = test: Effect on p130Cas phosphorylation in mouse 4T1 cultured as 3D spheroids at 0.1 to 1 uM incubated for 24 hrs by immunoblotting analysis; type: functional, cell-based; conditions: dose 0.1-1 µM
4T1 [14] = test: Inhibition of cell migration in mouse 4T1 cells assessed as maximal efficacy at 0.4 uM incubated for 4 hrs by millicell-motility assay; type: functional
4T1 [15] = test: Effect on p130Cas phosphorylation at Tyr410 residue in mouse 4T1 cultured as 3D spheroids at 0.1 uM incubated for 24 hrs by immunoblotting analysis; type: functional, cell-based
[16] = target: Tyrosine-protein kinase JAK2 (Homo sapiens) (UniProt O60674); test: Inhibition of JAK2 (unknown origin) at 1 uM relative to control; values are per cent of control
ID8 = test: Upregulation of FAK level in mouse ID8 cells harbouring mCherry red fluorescent protein at 0.1 to 1 uM incubated for 1 hr by immunoblotting analysis; type: functional, cell-based; conditions: dose 0.1-1 µM
[17] = target: Serine/threonine-protein kinase Chk1 (Homo sapiens) (UniProt O14757); test: Inhibition of CHK1 (unknown origin) at 1 uM relative to control; values are per cent of control
Homo sapiens [18] = species: Homo sapiens; test: Inhibition of p70S6K (unknown origin) at 1 uM relative to control; values are per cent of control
[19] = target: cAMP-dependent protein kinase (PKA) (Homo sapiens) (UniProt P22694+P17612+P22612); test: Inhibition of PKA (unknown origin) at 0.1 uM relative to control; values are per cent of control
4T1 [20] = test: Induction of apoptosis in mouse 4T1 adherent cells assessed as increase in cleaved caspase 3 expression at 0.4 uM incubated for 24 hrs by immunoblotting analysis; type: functional, cell-based
4T1 [21] = test: Effect on Src phosphorylation at Tyr416 residue in mouse 4T1 cells harbouring mCherry red fluorescent protein at 0.1 to 1 uM incubated for 1 hr by immunoblotting analysis; type: functional, cell-based; conditions: dose 0.1-1 µM
4T1 [22] = test: Induction of apoptosis in mouse 4T1 adherent cells at 1 uM incubated for 72 hrs by PI staining based flow cytometry analysis; type: functional, cell-based
4T1 [23] = test: Inhibition of cell migration in mouse 4T1 cells at 1 uM incubated for 22 hrs by wound healing assay; type: functional, cell-based
[24] = target: Vascular endothelial growth factor receptor 2 (Homo sapiens) (UniProt P35968); test: Inhibition of KDR (unknown origin) at 1 uM relative to control; values are per cent of control
[25] = target: Tyrosine-protein kinase Lck (Homo sapiens) (UniProt P06239); test: Inhibition of Lck (unknown origin) at 1 uM relative to control; values are per cent of control
Homo sapiens [26] = species: Homo sapiens; test: Inhibition of p70S6K (unknown origin) at 0.1 uM relative to control; values are per cent of control
[27] = target: Insulin-like growth factor 1 receptor (Homo sapiens) (UniProt P08069); test: Inhibition of IGF-1R (unknown origin) at 0.1 uM relative to control; values are per cent of control
[28] = target: Proto-oncogene tyrosine-protein kinase receptor Ret (Homo sapiens) (UniProt P07949); test: Inhibition of Ret (unknown origin) at 0.1 uM relative to control; values are per cent of control
4T1 [29] = test: Induction of cell cycle arrest in mouse 4T1 adherent cells assessed as accumulation at G0/G1 phase at 1 uM measured after 72 hrs by PI staining based flow cytometry analysis (reference value: 81.3%); type: functional
[30] = target: Aurora kinase A (Homo sapiens) (UniProt O14965); test: Inhibition of Aurora-A (unknown origin) at 1 uM relative to control
[31] = target: Proto-oncogene tyrosine-protein kinase Src (Homo sapiens) (UniProt P12931); test: Inhibition of c-SRC (unknown origin) at 0.1 uM relative to control; values are per cent of control

Sequence of Vascular endothelial growth factor receptor 2 (Homo sapiens) (P35968 whole entry): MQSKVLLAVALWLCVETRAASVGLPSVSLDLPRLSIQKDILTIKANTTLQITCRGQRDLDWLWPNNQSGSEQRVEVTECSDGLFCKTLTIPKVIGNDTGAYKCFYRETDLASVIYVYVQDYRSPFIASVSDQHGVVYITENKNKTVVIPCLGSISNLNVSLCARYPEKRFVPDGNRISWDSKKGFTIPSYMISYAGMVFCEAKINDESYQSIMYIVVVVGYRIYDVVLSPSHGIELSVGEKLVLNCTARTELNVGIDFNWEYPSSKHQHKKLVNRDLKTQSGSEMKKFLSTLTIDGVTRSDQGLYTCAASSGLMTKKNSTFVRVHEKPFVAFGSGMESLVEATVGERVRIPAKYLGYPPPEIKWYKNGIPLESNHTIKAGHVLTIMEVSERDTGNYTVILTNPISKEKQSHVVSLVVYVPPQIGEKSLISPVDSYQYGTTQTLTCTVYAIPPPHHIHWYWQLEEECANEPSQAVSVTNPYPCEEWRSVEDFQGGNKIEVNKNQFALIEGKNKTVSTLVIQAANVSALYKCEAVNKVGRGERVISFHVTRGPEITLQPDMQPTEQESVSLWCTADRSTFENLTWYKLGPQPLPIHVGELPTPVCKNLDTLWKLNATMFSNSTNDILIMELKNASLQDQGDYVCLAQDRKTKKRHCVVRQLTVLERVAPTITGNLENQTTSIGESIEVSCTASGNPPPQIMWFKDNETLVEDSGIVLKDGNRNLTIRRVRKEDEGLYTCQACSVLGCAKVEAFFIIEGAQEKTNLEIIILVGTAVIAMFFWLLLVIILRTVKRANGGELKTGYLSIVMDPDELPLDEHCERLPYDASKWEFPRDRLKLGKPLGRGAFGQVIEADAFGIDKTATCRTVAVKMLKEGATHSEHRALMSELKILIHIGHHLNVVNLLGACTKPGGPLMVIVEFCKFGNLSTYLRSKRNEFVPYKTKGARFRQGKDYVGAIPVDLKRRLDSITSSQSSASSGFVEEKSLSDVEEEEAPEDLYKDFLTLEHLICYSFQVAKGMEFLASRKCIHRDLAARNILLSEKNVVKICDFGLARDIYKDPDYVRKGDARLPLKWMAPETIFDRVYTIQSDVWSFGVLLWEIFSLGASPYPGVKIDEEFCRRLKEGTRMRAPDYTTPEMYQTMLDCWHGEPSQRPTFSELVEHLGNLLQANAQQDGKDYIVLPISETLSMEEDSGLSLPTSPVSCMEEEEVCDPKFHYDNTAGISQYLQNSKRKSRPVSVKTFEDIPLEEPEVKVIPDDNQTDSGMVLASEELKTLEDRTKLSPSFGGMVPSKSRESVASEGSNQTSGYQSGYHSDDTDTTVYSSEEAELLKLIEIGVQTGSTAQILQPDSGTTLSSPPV
Sequence of Mitogen-activated protein kinase 1 (Homo sapiens) (P28482 whole entry): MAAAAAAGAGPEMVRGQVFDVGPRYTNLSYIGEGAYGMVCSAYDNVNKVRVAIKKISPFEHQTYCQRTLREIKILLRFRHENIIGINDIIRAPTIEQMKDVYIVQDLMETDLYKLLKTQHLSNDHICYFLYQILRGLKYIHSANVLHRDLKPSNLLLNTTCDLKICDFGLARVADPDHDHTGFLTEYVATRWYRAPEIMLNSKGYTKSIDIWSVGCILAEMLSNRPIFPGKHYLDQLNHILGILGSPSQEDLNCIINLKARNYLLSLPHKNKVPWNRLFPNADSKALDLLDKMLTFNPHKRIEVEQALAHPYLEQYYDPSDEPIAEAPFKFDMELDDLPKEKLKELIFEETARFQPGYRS
Sequence of Mast/stem cell growth factor receptor Kit (Homo sapiens) (P10721 whole entry): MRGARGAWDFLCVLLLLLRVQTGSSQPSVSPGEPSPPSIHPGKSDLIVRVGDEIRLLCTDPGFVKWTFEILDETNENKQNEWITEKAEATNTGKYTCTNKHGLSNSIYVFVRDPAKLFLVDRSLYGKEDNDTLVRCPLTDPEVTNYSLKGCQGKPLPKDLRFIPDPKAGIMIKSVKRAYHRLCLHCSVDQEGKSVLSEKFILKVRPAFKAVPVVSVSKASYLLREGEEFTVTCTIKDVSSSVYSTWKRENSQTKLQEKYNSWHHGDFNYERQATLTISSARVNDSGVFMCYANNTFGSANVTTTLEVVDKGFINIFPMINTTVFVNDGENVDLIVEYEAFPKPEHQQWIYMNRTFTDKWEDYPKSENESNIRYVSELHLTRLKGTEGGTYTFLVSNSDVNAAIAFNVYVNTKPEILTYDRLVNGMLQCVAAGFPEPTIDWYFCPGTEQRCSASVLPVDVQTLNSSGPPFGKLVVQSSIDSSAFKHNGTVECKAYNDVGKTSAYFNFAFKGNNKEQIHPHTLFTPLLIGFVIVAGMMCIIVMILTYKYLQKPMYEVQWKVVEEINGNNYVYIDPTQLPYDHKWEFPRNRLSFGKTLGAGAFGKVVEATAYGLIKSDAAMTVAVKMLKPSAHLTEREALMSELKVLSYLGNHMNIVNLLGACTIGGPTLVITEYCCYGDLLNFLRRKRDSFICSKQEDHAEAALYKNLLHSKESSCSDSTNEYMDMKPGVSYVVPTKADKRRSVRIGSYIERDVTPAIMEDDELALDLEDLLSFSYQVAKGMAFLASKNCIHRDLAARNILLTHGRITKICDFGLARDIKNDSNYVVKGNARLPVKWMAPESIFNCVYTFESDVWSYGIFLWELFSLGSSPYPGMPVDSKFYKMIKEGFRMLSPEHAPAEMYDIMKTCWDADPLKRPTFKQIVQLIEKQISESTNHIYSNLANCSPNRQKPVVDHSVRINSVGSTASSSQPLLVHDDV
Sequence of Insulin receptor (Homo sapiens) (P06213 28-758 limits assumed): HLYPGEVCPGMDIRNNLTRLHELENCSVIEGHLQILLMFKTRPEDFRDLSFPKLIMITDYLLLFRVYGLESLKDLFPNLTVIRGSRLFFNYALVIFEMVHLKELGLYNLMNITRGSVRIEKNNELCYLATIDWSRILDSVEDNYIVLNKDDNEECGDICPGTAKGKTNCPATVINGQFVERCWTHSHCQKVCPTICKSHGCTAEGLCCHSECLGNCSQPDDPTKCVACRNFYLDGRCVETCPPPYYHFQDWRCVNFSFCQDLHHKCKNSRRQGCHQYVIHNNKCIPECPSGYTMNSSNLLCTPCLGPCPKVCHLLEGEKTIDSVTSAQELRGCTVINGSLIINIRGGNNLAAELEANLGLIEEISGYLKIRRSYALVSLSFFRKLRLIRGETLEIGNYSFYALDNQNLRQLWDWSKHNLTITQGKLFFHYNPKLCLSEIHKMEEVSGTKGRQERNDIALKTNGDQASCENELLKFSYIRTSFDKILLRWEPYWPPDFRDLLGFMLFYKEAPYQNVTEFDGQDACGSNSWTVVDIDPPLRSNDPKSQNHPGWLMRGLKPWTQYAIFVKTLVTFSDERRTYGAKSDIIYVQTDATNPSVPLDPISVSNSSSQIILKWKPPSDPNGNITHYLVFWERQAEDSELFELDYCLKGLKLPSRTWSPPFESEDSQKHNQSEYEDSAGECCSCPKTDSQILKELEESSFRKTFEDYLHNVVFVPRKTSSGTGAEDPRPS
Sequence of Insulin receptor (Homo sapiens) (P06213 763-1382 limits assumed): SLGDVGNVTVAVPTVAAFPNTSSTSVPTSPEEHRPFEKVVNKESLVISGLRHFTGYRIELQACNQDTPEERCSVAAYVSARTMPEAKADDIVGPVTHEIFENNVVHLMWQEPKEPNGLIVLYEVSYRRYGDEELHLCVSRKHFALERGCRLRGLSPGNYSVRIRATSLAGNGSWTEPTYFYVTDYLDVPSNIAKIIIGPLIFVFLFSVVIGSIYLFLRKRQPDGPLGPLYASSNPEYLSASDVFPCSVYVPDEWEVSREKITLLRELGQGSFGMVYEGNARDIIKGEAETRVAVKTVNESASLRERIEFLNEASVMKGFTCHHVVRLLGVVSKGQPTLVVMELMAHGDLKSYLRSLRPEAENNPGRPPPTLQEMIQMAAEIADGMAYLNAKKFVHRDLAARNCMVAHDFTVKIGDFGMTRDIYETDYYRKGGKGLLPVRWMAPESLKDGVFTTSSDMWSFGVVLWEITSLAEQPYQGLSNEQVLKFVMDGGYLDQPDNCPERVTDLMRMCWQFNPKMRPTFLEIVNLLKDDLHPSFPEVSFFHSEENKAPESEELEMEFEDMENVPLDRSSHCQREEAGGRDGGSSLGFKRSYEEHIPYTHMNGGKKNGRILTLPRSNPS
Sequence of Tyrosine-protein kinase Lck (Homo sapiens) (P06239 2-509 limits assumed): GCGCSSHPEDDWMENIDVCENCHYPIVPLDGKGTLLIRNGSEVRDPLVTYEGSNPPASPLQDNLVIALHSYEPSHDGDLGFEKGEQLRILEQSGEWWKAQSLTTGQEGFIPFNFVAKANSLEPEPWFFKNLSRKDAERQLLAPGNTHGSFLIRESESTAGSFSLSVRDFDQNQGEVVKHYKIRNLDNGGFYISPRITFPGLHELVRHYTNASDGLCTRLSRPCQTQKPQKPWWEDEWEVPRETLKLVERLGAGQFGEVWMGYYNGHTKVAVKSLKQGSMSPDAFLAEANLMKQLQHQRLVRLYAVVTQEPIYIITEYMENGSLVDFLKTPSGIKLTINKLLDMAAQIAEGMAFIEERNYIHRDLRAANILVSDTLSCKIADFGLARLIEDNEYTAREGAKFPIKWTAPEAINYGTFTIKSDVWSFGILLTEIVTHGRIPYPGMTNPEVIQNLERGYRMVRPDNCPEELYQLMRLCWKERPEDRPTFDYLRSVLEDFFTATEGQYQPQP
Sequence of Serine/threonine-protein kinase Chk1 (Homo sapiens) (O14757 whole entry): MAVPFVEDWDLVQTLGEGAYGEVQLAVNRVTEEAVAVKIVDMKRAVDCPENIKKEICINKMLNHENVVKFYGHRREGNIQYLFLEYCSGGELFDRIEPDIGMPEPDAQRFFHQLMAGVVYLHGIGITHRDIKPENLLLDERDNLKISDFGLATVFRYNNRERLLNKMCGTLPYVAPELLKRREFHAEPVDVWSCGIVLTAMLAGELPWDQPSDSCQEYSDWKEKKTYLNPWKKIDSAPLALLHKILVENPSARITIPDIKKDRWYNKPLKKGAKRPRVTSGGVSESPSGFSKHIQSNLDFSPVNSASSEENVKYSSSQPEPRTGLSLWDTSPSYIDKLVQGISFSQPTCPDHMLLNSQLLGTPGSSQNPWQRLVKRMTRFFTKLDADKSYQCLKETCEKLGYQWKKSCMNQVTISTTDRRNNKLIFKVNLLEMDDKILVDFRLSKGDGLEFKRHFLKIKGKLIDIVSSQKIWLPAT

CNC(=O)c1ccccc1Nc1cc(Nc2ccc(N3CCOCC3)cc2OC)ncc1C(F)(F)F [VS-4718]
residual activity [1]: 122% | residual activity [2]: 78% | residual activity [3]: 98% | Activity (4T1 [4]): 5.6% | residual activity [5]: 98% | residual activity [6]: 104% | residual activity [7]: 150% | Activity (4T1 [8]): inactive | residual activity [9]: 58% | residual activity [10]: 84% | residual activity [11]: 96% | residual activity [12]: 118% | Activity (4T1 [13]): inactive | Imax (4T1 [14]): ~60% | Activity (4T1 [15]): Active | residual activity [16]: 96% | Activity (ID8): Active | residual activity [17]: 105% | residual activity (Homo sapiens [18]): 97% | residual activity [19]: 114% | Activity (4T1 [20]): inactive | Activity (4T1 [21]): inactive | Activity (4T1 [22]): Active | inhibition (4T1 [23]): Active | residual activity [24]: 107% | residual activity [25]: 32% | residual activity (Homo sapiens [26]): 95% | residual activity [27]: 123% | residual activity [28]: 86% | Activity (4T1 [29]): 84.4% | inhibition [30]: 8% | residual activity [31]: 98%
